The record followed here is patent publication US9994551B2, “Pyridazine derivatives as RORc modulators” (Genentech, Inc., priority 2015, dated 2018).

One may read the IC50 as the midpoint of a concentration-inhibition curve.

The assay has as its target T1, RORc ligand binding domain (Homo sapiens, UniProt P51449).
T1 construct: host or cells: E. coli
T1 sequence (P51449 269-508 limits assumed): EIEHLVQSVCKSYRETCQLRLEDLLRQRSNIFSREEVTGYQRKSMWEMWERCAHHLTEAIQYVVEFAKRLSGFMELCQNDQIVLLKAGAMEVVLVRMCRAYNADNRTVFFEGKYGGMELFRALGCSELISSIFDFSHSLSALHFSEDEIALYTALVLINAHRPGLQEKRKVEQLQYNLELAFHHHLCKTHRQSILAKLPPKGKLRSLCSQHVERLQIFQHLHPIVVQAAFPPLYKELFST
The assay can be described thus: In vitro RORc ligand binding assay (25-[3H]hydroxycholesterol displacement, filter binding). Here is the method:
This assay was used to determine a compound's potency in inhibiting activity of RORc by determining, Kiapp, IC50, or percent inhibition values.
On day of the assay, 100 uL of 0.05% CHAPS (in deionized H2O) was added to all wells of the GFB Unifilter plate and allowed soak for 1 h. A wash buffer of 50 mM HEPES (pH 7.4), 150 mM NaCl, and 5 mM MgCl2 was prepared to wash the filter plate. To prepare an assay buffer, BSA was added to the wash buffer to reach 0.01% and DTT was added to reach 1 mM.
The 20× compound stocks were diluted in DMSO with Assay Buffer 4-fold to reach 5× the final test concentration in 25% DMSO (10 uL compound+30 uL Assay Buffer). Solutions were mixed by aspiration several times with a pipette set on 50 uL volume. For the assay, 10 uL of 5× compound stock solutions in 25% DMSO were added to the assay plate in duplicate.
For two point screening, 10 mM stock compound solutions were diluted in DMSO to obtain 200 uM (20× the high test concentration) and then diluted 10-fold further to reach 20 uM (20× the low test concentration). The 20× stocks were diluted 4-fold with Assay Buffer (10 uL compound+30 uL Assay Buffer) to reach 5× the test concentrations (50 uM and 5 uM) and 10 uL were added to two assay plates for the duplicate wells. With each concentration tested on 2 plates, each set of 80 compounds used 4 assay plates (1 uM and 10 uM, with n=2).
For 25-hydroxycholesterol in 25% DMSO/75% Assay Buffer; 10 uL per well was used for NSB samples. Wells for Total Binding and No Receptor sample determination contained 10 uL of 25% DMSO/75% Assay Buffer per well.
Add 20 uL to all wells to reach 6 nM final concentration in the assay.
Stock receptor solution was diluted in assay buffer to obtain 1.5 ug/mL in Assay Buffer. 20 uL was added to all wells. For No Receptor samples, 20 uL Assay Buffer was substituted for receptor solution.
Assay plates were 96-well polypropylene V-bottom plates. 10 uL of 5× compound in 25% DMSO/75% Assay Buffer was added to Test wells. 10 uL of 25% DMSO/75% Assay Buffer was added to Total Binding or No Receptor wells. 10 uL of 5 uM 25-hydroxycholesterol in 25% DMSO/75% Assay Buffer was added to NSB wells. […] 20 uL of 1.5 ug/mL RORc receptor was added to wells (or 40 uL Assay Buffer to No R wells). Following addition to the wells, the plates were incubated 3 h at 25° C.
Using a Packard Filtermate Harvester, the filter plate were washed 4 times following transfer of the incubated samples. Plates were dry-filtered completely (2 h at 50° C. or overnight at room temperature). 50 uL Microscint 0 was added to all wells and read on Topcount protocol Inverted.

For the compound `CC1(C)[C@H]2CC[C@]1([C@H]1CN(C(=O)c3ccc(Cl)nn3)CCO1)c1nnc(-c3c(F)cccc3F)cc12` [Compound 124, (6-chloropyridazin-3-yl)-[2-[5-(2,6-difluorophenyl)-11,11-dimethyl-3,4-diazatricyclo[6.2.1.02,7]undeca-2,4,6-trien-1-yl]morpholin-4-yl]methanone], the IC50 is 140 nM.

On to `CC1(C)[C@H]2CC[C@]1(c1ccn3ccnc3n1)c1nnc(-c3c(F)cccc3F)cc12` [Compound 106], for which the IC50 amounted to 102 nM.

Take `CC[C@@H](O[C@@]12CC[C@@H](c3cc(-c4c(F)cccc4F)nnc31)C2(C)C)C(=O)NCc1n[nH]c(=O)[nH]1` [Compound 56, (R)-2-(((5S,8R)-3-(2,6-difluorophenyl)-9,9-dimethyl-5,6,7,8-tetrahydro-5,8-methanocinnolin-8-yl)oxy)-N-((5-oxo-4,5-dihydro-1H-1,2,4-triazol-3-yl)methyl)butanamide]: the IC50 was 95.2 nM.

For the compound `Cc1coc(N2CCO[C@H]([C@@]34CC[C@@H](c5cc(-c6c(F)cccc6F)nnc53)C4(C)C)C2)n1` [Compound 134, 2-[5-(2,6-difluorophenyl)-11,11-dimethyl-3,4-diazatricyclo[6.2.1.02,7]undeca-2,4,6-trien-1-yl]-4-(4-methyloxazol-2-yl)morpholine], the IC50 was found to be 4 nM.

For the compound `CC1(C)[C@H]2CC[C@]1([C@H]1CN(C(=O)C(O)CO)CCO1)c1nnc(-c3c(F)cccc3F)cc12` (stereo partly drawn) [Compound 76, 1-((S)-2-((5R,8R)-3-(2,6-difluorophenyl)-9,9-dimethyl-5,6,7,8-tetrahydro-5,8-methanocinnolin-8-yl)morpholino)-2,3-dihydroxypropan-1-one], the IC50 turned out to be 277 nM.

Turning to `COC(=O)N1CCO[C@H]([C@@]23CC[C@@H](c4cc(-c5c(F)cccc5F)nnc42)C3(C)C)C1` [Compound 85, (R)-methyl 2-((5R,8R)-3-(2,6-difluorophenyl)-9,9-dimethyl-5,6,7,8-tetrahydro-5,8-methanocinnolin-8-yl)morpholine-4-carboxylate], the IC50 was 69.8 nM.

The compound `Cc1n[nH]c(C(=O)N2CCO[C@@H]([C@@]34CC[C@@H](c5cc(-c6c(F)cccc6F)nnc53)C4(C)C)C2)n1` [Compound 117, [2-[5-(2,6-difluorophenyl)-11,11-dimethyl-3,4-diazatricyclo[6.2.1.02,7]undeca-2,4,6-trien-1-yl]morpholin-4-yl]-(3-methyl-1H-1,2,4-triazol-5-yl)methanone] had an IC50 of 13 nM.

In turn, `CC1(C)[C@H]2CC[C@]1([C@H]1CCCN(C(=O)c3cocn3)C1)c1nnc(-c3c(F)cccc3F)cc12` [Compound 122, [3-[5-(2,6-difluorophenyl)-11,11-dimethyl-3,4-diazatricyclo[6.2.1.02,7]undeca-2,4,6-trien-1-yl]-1-piperidyl]-oxazol-4-yl-methanone] registered an IC50 of 21 nM.

In turn, `CC(C)(C)OC(=O)N1CCN[C@H]([C@@]23CC[C@@H](c4cc(-c5c(F)cccc5F)nnc42)C3(C)C)C1` [Compound 62, (R)-tert-butyl 3-((5R,8S)-3-(2,6-difluorophenyl)-9,9-dimethyl-5,6,7,8-tetrahydro-5,8-methanocinnolin-8-yl)piperazine-1-carboxylate] returned an IC50 of 136 nM.

Turning to `CC(C)(O)CNC(=O)N1CCC[C@H]([C@@]23CC[C@@H](c4cc(-c5c(F)cccc5F)nnc42)C3(C)C)C1` [Compound 150, 3-[5-(2,6-difluorophenyl)-11,11-dimethyl-3,4-diazatricyclo[6.2.1.02,7]undeca-2,4,6-trien-1-yl]-N-(2-hydroxy-2-methyl-propyl)piperidine-1-carboxamide], the IC50 was determined as 7.9 nM.

With `CC1(C)[C@H]2CC[C@]1([C@@H]1CN(S(C)(=O)=O)CCO1)c1nnc(-c3c(F)cccc3F)cc12` [Compound 65, (R)-2-((5R,8R)-3-(2,6-difluorophenyl)-9,9-dimethyl-5,6,7,8-tetrahydro-5,8-methanocinnolin-8-yl)-4-(methylsulfonyl)morpholine], the IC50 worked out at 224 nM.

Regarding `CN1CCN(C(N)=O)C[C@H]1[C@@]12CC[C@@H](c3cc(-c4c(F)cccc4F)nnc31)C2(C)C` [Compound 179, 3-[5-(2,6-difluorophenyl)-11,11-dimethyl-3,4-diazatricyclo[6.2.1.02,7]undeca-2,4,6-trien-1-yl]-4-methyl-piperazine-1-carboxamide], the IC50 was 2.9 nM.

For the compound `CC[C@@H](O[C@@]12CC[C@@H](c3cc(-c4c(F)cccc4F)nnc31)C2(C)C)c1nnc(C)o1` [Compound 20, 2-((R)-1-(((5S,8R)-3-(2,6-difluorophenyl)-9,9-dimethyl-5,6,7,8-tetrahydro-5,8-methanocinnolin-8-yl)oxy)propyl)-5-methyl-1,3,4-oxadiazole], the IC50 amounted to 24.1 nM.

In turn, `CC1(C)[C@H]2CC[C@]1([C@H]1CCCN(c3ccc(Cl)nn3)C1)c1nnc(-c3c(F)cccc3F)cc12` [Compound 170, 1-[1-(6-chloropyridazin-3-yl)-3-piperidyl]-5-(2,6-difluorophenyl)-11,11-dimethyl-3,4-diazatricyclo[6.2.1.02,7]undeca-2,4,6-triene] came in with an IC50 of 18 nM.

As to `CC1(C)C2CCC1(C1CCCN(C(=O)c3cnoc3)C1)c1nnc(-c3c(F)cccc3F)cc12` (centres unmarked) [Compound 160, [3-[5-(2,6-difluorophenyl)-11,11-dimethyl-3,4-diazatricyclo[6.2.1.02,7]undeca-2,4,6-trien-1-yl]-1-piperidyl]-isoxazol-4-yl-methanone], the IC50 amounted to 200 nM.

`CC(=O)N1CCO[C@H]([C@@]23CC[C@@H](c4cc(-c5c(F)cccc5F)nnc42)C3(C)C)C1` [Compound 64, 1-((R)-2-((5R,8R)-3-(2,6-difluorophenyl)-9,9-dimethyl-5,6,7,8-tetrahydro-5,8-methanocinnolin-8-yl)morpholino)ethanone]: the IC50 came out at 308 nM.

The compound `Cc1n[nH]c(N2CCO[C@@H]([C@@]34CC[C@@H](c5cc(-c6c(F)cccc6F)nnc53)C4(C)C)C2)n1` (single isomer, unassigned) [Compound 147, 2-[5-(2,6-difluorophenyl)-11,11-dimethyl-3,4-diazatricyclo[6.2.1.02,7]undeca-2,4,6-trien-1-yl]-4-(3-methyl-1H-1,2,4-triazol-5-yl)morpholine] showed an IC50 of 16 nM.

Compound `CC1(C)[C@H]2CC[C@]1(O[C@@H](C(N)=O)C1CC1)c1nnc(-c3c(F)cccc3F)cc12` [Compound 44] yielded an IC50 of 14.5 nM.

The compound `CC[C@@H](O[C@@]12CC[C@@H](c3cc(-c4c(F)cccc4F)nnc31)C2(C)C)C(=O)Nc1nnc(C)o1` [Compound 55, (R)-2-(((5S,8R)-3-(2,6-difluorophenyl)-9,9-dimethyl-5,6,7,8-tetrahydro-5,8-methanocinnolin-8-yl)oxy)-N-(5-methyl-1,3,4-oxadiazol-2-yl)butanamide] came in with an IC50 of 94.8 nM.

Compound `CNC(=O)c1nccnc1O[C@@]12CC[C@@H](c3cc(-c4c(F)cccc4F)nnc31)C2(C)C` [Compound 15, 3-(((5S,8R)-3-(2,6-difluorophenyl)-9,9-dimethyl-5,6,7,8-tetrahydro-5,8-methanocinnolin-8-yl)oxy)-N-methylpyrazine-2-carboxamide] displayed an IC50 of 72.2 nM.
